Results on four compounds are retold here after ChEMBL document CHEMBL5608197, “Optimization of pyrazolopyridine 4-carboxamides with potent antimalarial activity for which resistance is associated with the P. falciparum transporter ABCI3” (Eur J Med Chem, 2024).

The subject of data set [1] is Plasmodium falciparum. Kind of data set: Antiplasmodial activity against multidrug-resistant Plasmodium falciparum K1 infected in erythrocytes assessed as inhibition of parasite growth incubated for 72 hrs by [3H]hypoxanthine incorporation based microbeta counting analysis. Type of data set: functional, organism-based. The conditions noted are these: K1, Erythrocyte.

Data set [2] relates to Plasmodium falciparum. Kind of data set: Antiplasmodial activity against multidrig-resistant Plasmodium falciparum Dd2 harboring eEF2Y-I86N mutant infected in erythrocytes assessed as inhibition of parasite growth incubated for 72 hrs by [3H]hypoxanthine incorporation based microbeta counting analysis. Type of data set: functional, organism-based. The conditions noted are these: Dd2, Erythrocyte.

Data set [3] has as its system Plasmodium falciparum. Kind of data set: Antiplasmodial activity against multidrug-resistant Plasmodium falciparum 7G8 infected in erythrocytes assessed as inhibition of parasite growth incubated for 72 hrs by [3H]hypoxanthine incorporation based microbeta counting analysis. Type of data set: functional, organism-based. The following applies: 7G8, Erythrocyte.
Data set [4] relates to Plasmodium falciparum. Kind of data set: Antimalarial activity against asexual stage of Plasmodium falciparum 3D7 infected in erythrocytes assessed as lag phase of parasite growth at 10XEC50 incubated for 24 hrs followed by drug removal and incubation for 48 hrs with CFDA-SE labelled fresh erythrocytes by Hoechst 33342 staining based two-color flow cytometry. It is filed as functional, organism-based. The following applies: Erythrocyte. A general note: Flow cytometry measures light scatter and fluorescence of single cells or particles in a stream.

A short description of data set [5]: Ratio of EC50 for antiplasmodial activity against ring stage of Plasmodium falciparum 3D7 expressing ABCI3-HAreg in absence of ABCI3 inhibitor, GlcN to EC50 for antiplasmodial activity against ring stage of Plasmodium falciparum 3D7 expressing ABCI3-HAreg in presence of ABCI3 inhibitor, GlcN. It is filed as functional.
The test system of data set [6] is Plasmodium falciparum. Kind of data set: Antiplasmodial activity against Plasmodium falciparum Dd2 infected in erythrocytes assessed as inhibition of parasite growth incubated for 72 hrs by [3H]hypoxanthine incorporation based microbeta counting analysis. Type of data set: functional, organism-based. The following applies: Dd2, Erythrocyte.
Data set [7] in a line: Intrinsic clearance in rat hepatocytes at 1 uM measured per million cells for 90 mins by LC-MS/MS analysis. It is filed as ADME, cell-based, Hepatocyte. The following applies: read-out: CLH.
Data set [8] deals with Plasmodium falciparum. Kind of data set: Antiplasmodial activity against ring stage of Plasmodium falciparum 3D7 expressing ABCI3-HAreg assessed as inhibition of parasite proliferation incubated for 72 hrs in presence of ABCI3 inhibitor, GlcN by SYBR dye based flow cytometry. The conditions noted are these: 3D7, 72 h. It is filed as functional, organism-based.
Data set [9] in a line: Cytotoxicity against human HepG2 cells assessed as inhibition of cell growth incubated for 48 hrs by CellTiter-Glo luminescence assay. Type of data set: toxicity, cell-based. In general terms: Cellular ATP, detected with luciferase, serves as a proxy for viable cell number.
Data set [10] concerns Plasmodium falciparum. Kind of data set: Antiplasmodial activity against multidrug-resistant Plasmodium falciparum Dd2 harboring PI4K-S743F mutant infected in erythrocytes assessed as inhibition of parasite growth incubated for 72 hrs by [3H]hypoxanthine incorporation based microbeta counting analysis. It is filed as functional, organism-based. The conditions noted are these: Dd2, Erythrocyte.

For data set [11], the system named is Plasmodium falciparum. Kind of data set: Antiplasmodial activity against multidrug-resistant Plasmodium falciparum TM90-C2B infected in erythrocytes assessed as inhibition of parasite growth incubated for 72 hrs by [3H]hypoxanthine incorporation based microbeta counting analysis. The following applies: Erythrocyte. Type of data set: functional, organism-based.

The test system of data set [12] is Plasmodium falciparum. Kind of data set: Antimalarial activity against asexual stage of Plasmodium falciparum 3D7 infected in erythrocytes assessed as parasite killing at 10XEC50 incubated for 48 hrs with compound renewal for every 24 hrs followed by drug removal and incubation for 48 hrs with CFDA-SE labelled fresh erythrocytes by Hoechst 33342 staining based two-color flow cytometry. Type of data set: functional, organism-based. The following applies: Erythrocyte.

For data set [13], the system named is Plasmodium falciparum. Kind of data set: Antiplasmodial activity against ring stage of Plasmodium falciparum 3D7 expressing ABCI3-HAreg assessed as inhibition of parasite proliferation incubated for 72 hrs in absence of ABCI3 inhibitor, GlcN by SYBR dye based flow cytometry. Type of data set: functional, organism-based. The following applies: 3D7, 72 h.
The subject of data set [14] is Plasmodium falciparum. Kind of data set: Antiplasmodial activity against multidrug-resistant Plasmodium falciparum Dd2 harboring DHODH-C276F mutant infected in erythrocytes assessed as inhibition of parasite growth incubated for 72 hrs by [3H]hypoxanthine incorporation based microbeta counting analysis. It is filed as functional, organism-based. The conditions noted are these: Dd2, Erythrocyte.

Data set [15] is described as follows: Intrinsic clearance in human liver microsomes at 1 uM measured for 60 mins by LC-MS/MS analysis. It is filed as ADME, Microsome. The conditions noted are these: read-out: CLH. (In general: Liver microsomes are vesicles of endoplasmic reticulum, rich in cytochrome P450 enzymes.)
The test system of data set [16] is Plasmodium falciparum. Kind of data set: Antiplasmodial activity against multidrug-resistant Plasmodium falciparum NF54 infected in erythrocytes assessed as inhibition of parasite growth incubated for 72 hrs by [3H]hypoxanthine incorporation based microbeta counting analysis. It is filed as functional, organism-based. The conditions noted are these: NF54, Erythrocyte.

The nature of data set [17]: Lipophilicity, elogD of the compound in 1-Octanol/PBS at pH 7.4 at 7.5 uM incubated for 2 hrs by miniaturized shake flask method. It is filed as physicochemical.
Data set [18] in a line: Aqueous solubility of the compound in PBS buffer at pH 7.4 at 200 uM incubated for 2 hrs under shaking condition by miniaturized shake flask method. Type of data set: physicochemical.
The test system of data set [19] is Plasmodium falciparum. Kind of data set: Antiplasmodial activity against multidrug-resistant Plasmodium falciparum Dd2 harboring CARL-I1139K mutant infected in erythrocytes assessed as inhibition of parasite growth incubated for 72 hrs by [3H]hypoxanthine incorporation based microbeta counting analysis. Type of data set: functional, organism-based. The conditions noted are these: Dd2, Erythrocyte.

For data set [20], the system named is Plasmodium falciparum. Kind of data set: Antiplasmodial activity against asexual blood stage of Plasmodium falciparum 3D7 assessed as inhibition of parasite growth incubated for 72 hrs by LDH assay. Type of data set: functional, organism-based. The following applies: 3D7, 72 h.
Data set [21] concerns Plasmodium falciparum. Kind of data set: Antiplasmodial activity against multidrug-resistant Plasmodium falciparum Cam3.1 infected in erythrocytes assessed as inhibition of parasite growth incubated for 72 hrs by [3H]hypoxanthine incorporation based microbeta counting analysis. Type of data set: functional, organism-based. The conditions noted are these: Cam3.1, Erythrocyte.

Data set [22] concerns Plasmodium falciparum. Kind of data set: Antiplasmodial activity against multidrug-resistant Plasmodium falciparum Dd2 harboring cyt b-I22L mutant infected in erythrocytes assessed as inhibition of parasite growth incubated for 72 hrs by [3H]hypoxanthine incorporation based microbeta counting analysis. The conditions noted are these: Dd2, Erythrocyte. It is filed as functional, organism-based.

The subject of data set [23] is Plasmodium berghei. Kind of data set: Antimalarial activity against asexual blood stage of Plasmodium berghei ANKA infected in Balb/c mouse assessed as reduction in parasitemia at 25 mg/kg, po qd administered at 2 hrs post-infection on day 0 and then on days 1,2 and 3 post-infection and measured on day 2 to 4 post-infection. Type of data set: functional, organism-based. The following applies: time 3-5 day.

Data set [24] in a line: Toxicity in Balb/c mouse infected with asexual blood stage of Plasmodium berghei ANKA assessed as body weight at 25 mg/kg, po qd administered at 2 hrs post-infection on day 0 and then on days 1,2 and 3. The following applies: in vivo, 96 h, time 4 day. It is filed as organism-based.
The nature of data set [25]: Toxicity in Balb/c mouse infected with asexual blood stage of Plasmodium berghei ANKA assessed as adverse effects at 25 mg/kg, po administered at 2 hrs post-infection on day 0 and then on days 1,2 and 3. It is filed as organism-based. The following applies: in vivo, 96 h, time 4 day.
Data set [26] deals with Plasmodium berghei. Kind of data set: Antimalarial activity against asexual blood stage of Plasmodium berghei ANKA infected in Balb/c mouse assessed as reduction in parasitemia at 25 mg/kg, po qd administered at 2 hrs post-infection on day 0 and then on days 1,2 and 3 post-infection and measured on day 5 to 7 post-infection by peter's test relative to control. It is filed as functional. The following applies: time 6-8 day.

Data set [27] in a line: Intrinsic clearance in mouse liver microsomes at 1 uM measured for 60 mins by LC-MS/MS analysis. The following applies: read-out: CLH. Type of data set: ADME, Microsome.
For data set [28], the system named is Plasmodium berghei. Kind of data set: Antimalarial activity against asexual blood stage of Plasmodium berghei ANKA infected in Balb/c mouse assessed as reduction in parasitemia at 30 mg/kg, po qd administered at 2 hrs post-infection on day 0 and then on days 1,2 and 3 post-infection and measured on day 4 to 7 post-infection by peter's test. Type of data set: functional, organism-based. The conditions noted are these: time 5-8 day.

The subject of data set [29] is Plasmodium berghei. Kind of data set: Antimalarial activity against asexual blood stage of Plasmodium berghei ANKA infected in Balb/c mouse assessed as reduction in parasitemia at 30 mg/kg, po qd administered at 2 hrs post-infection on day 0 and then on days 1,2 and 3 post-infection and measured on day 2 to 4 post-infection. Type of data set: functional, organism-based. The conditions noted are these: time 3-5 day.

Converted amounts (≈) assume the structure as drawn. The source made the active and inactive calls. The rule behind the calls is not given here. A value given as a limit tells only on which side of the number the result lay.

The EC50 is the concentration at which the effect is half-maximal. Broadly, the CC50 is the concentration at which the toxic effect on the cells reaches its halfway point. For orientation: logD means the decadic logarithm of the distribution of all forms, ionised or not, between an organic phase and buffer at a given pH. A higher logD goes with higher lipophilicity. What is called thermodynamic solubility is the concentration in solution at equilibrium with solid. As to `Cc1nn(C(C)(C)C)c2nc(C3CC3)cc(C(=O)N3CCOc4ccccc43)c12`, the EC50 in the data set on Plasmodium falciparum [1] was 134 nM; in the data set with Plasmodium falciparum [2], 104 nM; in the data set on Plasmodium falciparum [3], 114 nM; in the data set with Plasmodium falciparum [6] it was 88 nM; with Plasmodium falciparum [8], 13.9 nM; in the data set on Plasmodium falciparum [10], 101 nM. Moreover, the EC50 in the data set on Plasmodium falciparum [11] was 119 nM; with Plasmodium falciparum [13] it was 47.6 nM; with Plasmodium falciparum [14] it was 105 nM; in the data set on Plasmodium falciparum [16] it was 46 nM; in the data set on Plasmodium falciparum [19], 79 nM; in the data set with Plasmodium falciparum [20], 130 nM. Also, the concentration giving a half-maximal response (EC50) was 89 nM in the data set with Plasmodium falciparum [21] and 91 nM in the data set with Plasmodium falciparum [22]. The result with Plasmodium falciparum [4] and with Plasmodium falciparum [12] was Active. Also, in [5], the “Ratio EC50” value was found to be 3.4. In addition, the hepatocyte CLint at 1 µM in data set [7] stood at 49 µL/min/1e6 cells. In addition, the CC50 at 48 h in [9] was above 40000 nM. Moreover, the microsomal CLint at 1 µM in [15] came to 206 µL/min/mg. The compound also had a logD at 2 h, 7.5 µM in data set [17] of 5.4. This compound also came in with a thermodynamic solubility at 2 h, 200 µM in [18] below 2.5 µM.
What is called inhibition in vivo is how much of the control response was suppressed. As for `Cc1nn(C(C)C)c2nc(C3CC3)cc(C(=O)N3CCOc4ccncc43)c12`, the hepatocyte CLint at 1 µM in data set [7] stood at 30 µL/min/1e6 cells. For the same compound, the CC50 at 48 h in data set [9] worked out at 17600 nM. Also, in the data set with Plasmodium berghei [23], the result was inactive. The Activity result in [24] and in [25] was “Non-Toxic” throughout. Besides, the inhibition in vivo at 25 mg/kg in the data set on Plasmodium berghei [26] is around 50%. The microsomal CLint at 1 µM in data set [27] is 323 µL/min/mg; in data set [15], 27 µL/min/mg. Moreover, in data set [17], the logD at 2 h, 7.5 µM came to 4.5. Moreover, in [18], the thermodynamic solubility at 2 h, 200 µM stood at 199 µM (≈ 75.1 µg/mL). Besides, the EC50 in the data set with Plasmodium falciparum [20] was 19 nM.
In the case of `C[C@H]1[C@H](OC(=O)CCC(=O)O)O[C@@H]2O[C@@]3(C)CC[C@H]4[C@H](C)CC[C@@H]1[C@@]24OO3`, the outcome in the data set on Plasmodium berghei [28] was inactive. Further, the result with Plasmodium berghei [29] was Active.
With `COc1cc2[nH]c(C)c(-c3ccc(Oc4ccc(OC(F)(F)F)cc4)cc3)c(=O)c2cc1Cl`, the EC50 in the data set with Plasmodium falciparum [6] was 14 nM; with Plasmodium falciparum [22], 120 nM.
